The values that follow come from US20080064048A1, “Methods for Selecting Proteins that are Readily Presented as Antigens on Dendritic Cells” (Medical and Biological Laboratories, Co., Ltd., priority 2004, published 2008).

Where a SMILES comes first, the peptide text is derived from it. The star is where a group is joined. Cbz = O=C(OCc1ccccc1)*

The test system of one test is DC2.4 cells. The test is described as follows: Pulse-chase degradation of cell-bound bOVA (SA beads, SDS-PAGE, Western blot). It counts as cell-based, mouse. Particulars: for effect of inhibitor on decrease (degradation) of cell-bound bOVA: DC2.4, bOVA 1 h pulse, chase up to 4 h, MG-132 10 μM, lactacystin 2 μM, NH4Cl 50 mM; for effect of ERAD inhibition on degradation of accumulated bOVA: DC2.4, thapsigargin 300 nM, tunicamycin 2 μg. Here is the method: Triton X-100 was used to lyse membranes. […] DC2.4 cells were pulsed with bOVA and chased. bOVA was recovered using SA beads, then separated by SDS-PAGE followed by Western blotting using SA-HRP Ctl: a control not containing inhibitors. […] Asterisks in the left panel indicate non-specific binding with SA-HRP.
Next, DC2.4 cells were incubated with bOVA for one hour, and this was then chased for up to four hours. Cell-bound bOVA was recovered from total cell lysates by streptavidin-agarose and separated by SDS-PAGE.
Depletion of Ca^2+ in the ER is known to inhibit ERAD. Thapsigargin (Tg) is known to decrease the Ca^2+ concentration in the ER lumen by binding to the ER membrane and functioning as an ionophore and to inhibit ERA D. Thus, in the presence of Tg, bOVA degradation by ERAD is predicted to be suppressed. DC2.4 cells were pulsed with bOVA in the presence of MG-132, then washed with PBS or with PBS containing 1 mM EGTA, and then chased for four hours.
(In general: A western blot detects proteins with antibodies after separation by electrophoresis.)

Another test concerns OT-II CD4+ T cells. The test is described as follows: MHC class II antigen presentation: IL-2 production by OT-II CD4+ T cells. It counts as cell-based, mouse. The method, then: DC2.4 cells pretreated in the presence of NH4Cl were cultured with OVA, and then the stimulation of OT-I CD8^+ T cells in response to MHC […] presentation (circles) and stimulation of OT-II CD4^+ T cells in response to MHC class II antigen presentation (triangles) was determined by measuring IL-2 production levels. IL-2 production level in the presence of NH4Cl was expressed as a ratio relative to the control (IL-2 production was 700 pg/mL relative to OT-I, and 20 pg/mL relative to OT-II).

The test system of another test is OT-I CD8+ T cells. The test is described as follows: Antigen presentation level: IL-2 production by OT-I CD8+ T cells (ELISA). As to conditions: for effect of proteasome inhibitor on stimulation by OVA: DC2.4, OVA 250 μg/mL; for effect of proteasome inhibitor on stimulation by OVA / effect of proteasome inhibitor on stimulation by SIINFEKL peptide: lactastatin 10 μM, MG-132 25 μM; for effect of proteasome inhibitor on stimulation by SIINFEKL peptide: DC2.4, SIINFEKL 10 ng/mL. It counts as cell-based, mouse. From the text: Whether knock-down of cellular components involved in ERAD decreases the cross-presentation of exogenous OVA antigen was examined using a system for evaluating the level of antigen presentation, which uses naive CD8^+ T cells from OT-I mice and DC2.4 cells. The DC2.4 cells used as a model of dendritic cells are of the H-2 Kb mouse MHC class I haplotype. OT-I (H-2 Kb) mice are transgenic mice expressing a T cell receptor (TCRα and β) that recognizes an antigenic peptide (SIINFEKL) (SEQ ID NO: 15) derived from OVA presented on the H-2 Kb molecules. The CD8^+ cells of OT-I mice are activated when they recognize OVA peptides presented by BMDCs derived from H-2 Kb mice or by DC2.4 cells. When OVA or bOVA is incubated with and affixed onto DC2.4 cells and the cells are further incubated with naive CD8^+ T cells of OT-I mice, the amount of IL-2 produced by OT-I CD8^+ T cells serves as an index of T-cell stimulation as a result of OVA antigen presented by DC2.4 cells.
Parental or knocked-down DC2.4 cells were pre-incubated in a culture medium supplemented with 50 μg mL^−1 polymyxin B for 30 minutes in the presence or absence of lactacystin or MG-132, and incubated with OVA (250 μg mL^−1) or SIINFEKL (SEQ ID NO: 15) peptides (10 ng mL^−1) for six hours. The cells were washed, fixed with 1% paraformaldehyde, and aliquoted into microtiter plates (5×10^4 per well). 5×10^4 CD8^+ T cells purified from splenocytes of OT-1 mice using magnetic beads were added to each well and after a 24-hour incubation, the IL-2 secretion was measured by ELISA (BD Biosciences) in triplicate. […]

Test [1] addresses OVA-derived antigenic peptide SIINFEKL presented on H-2 Kb on DC2.4 cells (chicken; mouse) (UniProt P01887). The test is described as follows: cell-based or functional assay.
The target of a further test is T1, TAP1 (mouse, UniProt P21958 1-724).
T1 construct: Endogenous protein; also called TAP1/2
T1 sequence (looked up): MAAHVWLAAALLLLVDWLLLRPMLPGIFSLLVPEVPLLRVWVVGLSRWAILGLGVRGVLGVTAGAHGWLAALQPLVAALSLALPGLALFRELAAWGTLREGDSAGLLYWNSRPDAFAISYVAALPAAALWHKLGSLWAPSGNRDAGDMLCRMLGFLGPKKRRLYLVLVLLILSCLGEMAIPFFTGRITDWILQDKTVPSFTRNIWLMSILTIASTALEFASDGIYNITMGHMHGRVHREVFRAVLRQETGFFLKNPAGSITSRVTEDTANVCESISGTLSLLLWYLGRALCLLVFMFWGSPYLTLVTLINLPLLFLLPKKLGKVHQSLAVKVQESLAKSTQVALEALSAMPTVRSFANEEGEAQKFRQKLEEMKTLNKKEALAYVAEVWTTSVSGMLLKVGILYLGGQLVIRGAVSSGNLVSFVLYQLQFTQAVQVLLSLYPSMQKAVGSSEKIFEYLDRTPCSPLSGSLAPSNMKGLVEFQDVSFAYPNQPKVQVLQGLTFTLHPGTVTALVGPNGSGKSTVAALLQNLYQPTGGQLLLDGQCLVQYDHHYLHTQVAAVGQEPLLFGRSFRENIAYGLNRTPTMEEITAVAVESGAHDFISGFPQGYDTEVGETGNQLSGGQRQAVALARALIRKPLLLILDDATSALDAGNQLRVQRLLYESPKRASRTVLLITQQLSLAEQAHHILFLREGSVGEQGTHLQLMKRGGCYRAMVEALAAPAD
The test is described as follows: co-immunoprecipitation with anti-TAP1 from DC2.4 lysate, SA-HRP blot. The method, then: (§1) DC2.4 cells were incubated with bOVA and subjected to co-immunoprecipitation with anti-Sec61α. bOVA was added at 2.5 mg mL⁻¹ to cell lysates before immunoprecipitation (the two left-hand lanes in each panel). After SDS-PAGE, blotting was performed using SA-HRP and anti-Sec61α antibody.
(§2) 2×10⁷ DC2.4 or BMDC cells were cultured for four hours in a medium containing 10 μM MG-132 in the presence of bOVA at 250 μg mL⁻¹. Cells were lysed in 20 mM HEPES pH7.6 containing 1% digitonin and protease inhibitors to collect biotin-labeled samples. The samples were cleared of impurities in advance using protein G sepharose (Amersham Pharmacia Biotech), and after incubation with antibodies for precipitation (anti-Sec61β, anti Sec61α, anti-VCP, anti-BiP, anti-PDI, anti-calreticulin, anti-TAP1, and anti-TAP2), the immunoprecipitates were collected using protein G. When chicken anti-CHIP antibody was used, immunoprecipitates were collected using a rabbit anti-IgY column (a person, MBL). The precipitated samples were analyzed by SDS-PAGE and Western blotting.

The next test concerns the target T2, TAP2 (mouse, UniProt P36371 1-702).
T2 construct: Endogenous protein; also called TAP1/2
T2 sequence (looked up): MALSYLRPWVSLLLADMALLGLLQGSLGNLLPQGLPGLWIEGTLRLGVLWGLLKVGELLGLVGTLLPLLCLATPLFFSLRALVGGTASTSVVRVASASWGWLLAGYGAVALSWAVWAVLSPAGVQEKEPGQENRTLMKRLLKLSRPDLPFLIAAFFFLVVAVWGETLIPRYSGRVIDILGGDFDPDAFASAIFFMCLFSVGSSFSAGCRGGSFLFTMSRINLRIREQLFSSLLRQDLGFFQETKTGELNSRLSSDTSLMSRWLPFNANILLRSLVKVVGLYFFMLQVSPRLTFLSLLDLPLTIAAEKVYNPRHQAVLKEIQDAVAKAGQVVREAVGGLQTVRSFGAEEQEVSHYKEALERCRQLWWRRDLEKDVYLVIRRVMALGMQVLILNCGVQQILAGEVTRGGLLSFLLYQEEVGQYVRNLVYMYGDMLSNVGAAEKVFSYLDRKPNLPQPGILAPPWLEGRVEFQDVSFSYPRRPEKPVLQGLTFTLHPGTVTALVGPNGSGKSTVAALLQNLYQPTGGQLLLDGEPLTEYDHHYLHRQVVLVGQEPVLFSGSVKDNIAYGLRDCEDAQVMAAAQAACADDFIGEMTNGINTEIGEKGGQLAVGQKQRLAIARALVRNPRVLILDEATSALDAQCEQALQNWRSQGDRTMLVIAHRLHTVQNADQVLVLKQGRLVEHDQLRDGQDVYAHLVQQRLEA
In words: co-immunoprecipitation with anti-TAP2 from DC2.4 lysate, SA-HRP blot. The method, then: as §1, §2

Setting [2] is: DC2.4 pretreated with NH4Cl, cultured with OVA.
[3] abbreviates: control without NH4Cl, DC2.4 cultured with OVA.

Take `Cl.N` [NH4Cl, Ammonium chloride, reference compound]: in the test with DC2.4 cells, the “effect of inhibitor on decrease (degradation) of cell-bound bOVA” value is “did not significantly affect”. Besides, in the test with OT-II CD4+ T cells (setting [2]), the “effect on presentation of the OVA antigen with MHC class II to OT-II CD4+ cells” value is “inhibited”. The “effect on presentation of the OVA antigen with MHC class to OT-I CD8+ T cells” value with OT-I CD8+ T cells (setting [2]) is recorded as “did not reduce”.

In the case of “OT-I T cell receptor (TCRα and β) on CD8+ T cells of OT-I mice”, the IL-2 production level in test [1] came to 700 pg/mL.

As for `CC(=O)N[C@@H](CSC(=O)[C@]1([C@@H](O)C(C)C)NC(=O)[C@H](C)[C@@H]1O)C(=O)O` [lactacystin, reference compound], in the test with DC2.4 cells, the “effect of inhibitor on decrease (degradation) of cell-bound bOVA” value is given as “blocked”. In the test with OT-I CD8+ T cells, the “effect of proteasome inhibitor on stimulation by OVA” value is recorded as “suppressed” and the “effect of proteasome inhibitor on stimulation by SIINFEKL peptide” value is given as “did not suppress”.

Regarding `C/C=C(/C)C(=O)O[C@H]1C(C)=C2[C@H]([C@@H]1OC(=O)CCCCCCC)[C@@](C)(OC(C)=O)C[C@H](OC(=O)CCC)[C@@]1(O)[C@H]2OC(=O)[C@@]1(C)O` [Thapsigargin], in the test on DC2.4 cells, the “effect of ERAD inhibition on degradation of accumulated bOVA” value is reported as “inhibited”.

`CC(C)C[C@@H](C=O)NC(=O)[C@H](CC(C)C)NC(=O)[C@H](CC(C)C)NC(=O)OCc1ccccc1` [MG-132, reference compound] (Cbz-Leu-Leu-Leu-aldehyde): the “effect of inhibitor on decrease (degradation) of cell-bound bOVA” value in the test on DC2.4 cells is “blocked”. In addition, in the test with OT-I CD8+ T cells, the “effect of proteasome inhibitor on stimulation by OVA” value was “suppressed” and the “effect of proteasome inhibitor on stimulation by SIINFEKL peptide” value was “did not suppress”.

As for tunicamycin, the “effect of ERAD inhibition on degradation of accumulated bOVA” value in the test on DC2.4 cells is recorded as “inhibited”.

B1: OVA-KDEL: OVA with KDEL (Lys-Asp-Glu-Leu) added to its C-terminus, SEQ ID NO: 14 (protein)
chain: MGSIGAASMEFCFDVFKELKVHHANENIFYCPIAIMSALAMVYLGAKDSTRTQINKVVRFDKLPGFGDSIEAQCGTSVNVHSSLRDILNQITKPNDVYSFSLASRLYAEERYPILPEYLQCVKELYRGGLEPINFQTAADQARELINSWVESQTNGIIRNVLQPSSVDSQTAMVLVNAIVFKGLWEKAFKDEDTQAMPFRVTEQESKPVQMMYQIGLFRVASMASEKMKILELPFASGTMSMLVLLPDEVSGLEQLESIINFEKLTEWTSSNVMEERKIKVYLPRMKMEEKYNLTSVLMAMGITDVFSSSANLSGISSAESLKISQAVHAAHAEINEAGREVVGSAEAGVDAASVSEEFRADHPFLFCIKHIATNAVLFFGRCVSPASAEDYEYPSRSNGTKNNTSQASKDEL
As for B1, the “antigen presentation level compared with OVA” value with OT-I CD8+ T cells (DC2.4, data not shown) was “stronger”.

B2: biotin-labeled chicken ovalbumin (bOVA) (other, UniProt P01012 2-386, looked up)
chain: GSIGAASMEFCFDVFKELKVHHANENIFYCPIAIMSALAMVYLGAKDSTRTQINKVVRFDKLPGFGDSIEAQCGTSVNVHSSLRDILNQITKPNDVYSFSLASRLYAEERYPILPEYLQCVKELYRGGLEPINFQTAADQARELINSWVESQTNGIIRNVLQPSSVDSQTAMVLVNAIVFKGLWEKAFKDEDTQAMPFRVTEQESKPVQMMYQIGLFRVASMASEKMKILELPFASGTMSMLVLLPDEVSGLEQLESIINFEKLTEWTSSNVMEERKIKVYLPRMKMEEKYNLTSVLMAMGITDVFSSSANLSGISSAESLKISQAVHAAHAEINEAGREVVGSAEAGVDAASVSEEFRADHPFLFCIKHIATNAVLFFGRCVSP
modifications: biotin-labeled (sites not given)
notes: Exogenous antigen added to mouse dendritic cells
For B2, the binding result with TAP1 and with TAP2 was “no binding” throughout.

B3: Chicken ovalbumin (protein)
chain: B2 chain
notes: Chicken ovalbumin used as an antigen model
As for B3, the “IL-2 production by OT-II CD4+ T cells (control)” value in the test with OT-II CD4+ T cells (setting [3]) is listed as 20 pg/mL. Besides, the “antigenicity for stimulation of CD8+ OT-I T cells (IL-2 production)” value in the test with OT-I CD8+ T cells (DC2.4, dose-response OVA vs bOVA) is reported as “equally antigenic”. The “OVA stimulation of OT-I CD8+ T cells by knocked-down DC2.4 cells” value in the test on OT-I CD8+ T cells (Sec61 (S22), VCP (V41) or CHIP (C4) knocked down) was “reduction in OVA stimulation”. The “IL-2 production by OT-I CD8+ T cells” value with OT-I CD8+ T cells (setting [3]) is reported as 700 pg/mL.
